# According to PMC6508961, “A high-throughput screen of pharmacologically active compounds for inhibitors of UHRF1 reveals epigenetic activity of anthracycline derivative chemotherapeutic drugs” (Oncotarget, 2019):
# Like-named read-outs stand apart in the source and are kept apart here.
# Key:
# [1] = biological target: T1, UHRF1_SRA binding to hemimethylated DNA (Homo sapiens, UniProt Q96T88); experiment: LOPAC primary screen with the TR-FRET assay; details: 20 μM; hit = Z-score < −4.08, Bonferroni adjusted p-value < 0.05
# T1 construct: made in house; host or cells: E. coli BL-21 Gold
# T1 sequence (Q96T88 419-582 limits assumed): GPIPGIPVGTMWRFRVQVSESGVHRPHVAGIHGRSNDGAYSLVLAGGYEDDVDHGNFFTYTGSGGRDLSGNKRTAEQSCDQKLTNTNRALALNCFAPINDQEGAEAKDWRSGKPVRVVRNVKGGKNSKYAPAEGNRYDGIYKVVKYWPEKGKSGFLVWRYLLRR
# Protocol: The above TR-FRET assay was employed to screen the Library of Pharmacologically Active Compounds (LOPAC) (Sigma-Aldrich) using optimized conditions. 200 uM stock solutions of compounds dissolved in dimethyl sulfoxide (DMSO) were added to a final concentration of 20 μM across four 384-well plates containing 20 μL of TR-FRET buffer with 125 nM UHRF1_SRA protein, 100 nM double stranded FAM-labeled hemimethylated oligos, and 5 nM terbium labeled anti-HIS antibody. Controls on each plate include: 1) a DMSO-only vehicle control, 2) 5μM of unlabeled, methylated oligonucleotide as a positive inhibition control, 3) unmethylated, FAM-labeled oligonucleotide as a negative control, and 4) no UHRF1_SRA protein negative control. Each plate was incubated at 4° C for one hour and read using a Safire^2 (Tecan Group, Männedorf, Switzerland) with excitation at 332 nm and emissions read at 485 nm and 515 nm. A Z score of the TR-FRET signal (ratio of 515 nm signal to the 485 nm signal) was calculated for each compound using the following formula: […]
# where x is the TR-FRET signal for each compound, x¯ is the median TR-FRET signal of all compounds on the plate, and σ is the standard deviation of all compound TR-FRET signals across the plate. Hits were defined as those compounds with Z-score < −4.08 corresponding to a Bonferroni adjusted p-value of less than 0.05.
# [2] = biological target: T1, UHRF1_SRA binding to hemimethylated DNA; experiment: TR-FRET assay, dose-response inhibition of UHRF1_SRA binding to FAM-labeled hemimethylated DNA; details: for Dose-response validation of screen hits (result in words): dilution series 50 μM to 0.64 nM, quadruplicate
# Protocol: TR-FRET assays were performed in an optimized TR-FRET buffer (4% glycerol, 1 mM MgCl2, 0.5 mM EDTA, 0.5 mM DTT, 125 mM NaCl, 10 mM Tris HCl, and 0.2% Tween-20) in non-binding, flat-bottom 384-well plates (Corning). UHRF1_SRA protein was added to a final concentration of 125 nM and terbium-labeled antibody was added at 5 nM (Life Technologies) in a final reaction volume of 20 μL. For initial binding experiments examining the affinity of UHRF1_SRA to DNA, FAM-labeled hemimethylated or unmethylated double stranded oligonucleotides were added in a dilution series, and the reaction mixture was incubated at 4°C with shaking for 1 hour. TR-FRET measurements were made on a SpectraMax M5 (Molecular Devices, Sunnyvale, CA, USA), using an excitation wavelength of 332 nm and emissions read at 485 nm and 515 nm with a 50 μsec delay and 400 μsec integration. The ratio of the 515 nm emission (arising from FRET) to the 485 nm emission provides a normalized TR-FRET signal that represents the extent of binding. For inhibitor curves, FAM-labeled hemimethylated oligonucleotide was added to a final concentration of 100 nM, and unlabeled oligonucleotide was added in a dilution series. A Z’ factor was calculated for 32 replicates of UHRF1_SRA protein binding FAM-labeled hemimethylated DNA with or without the addition of an excess (5 μM) of unlabeled hemimethylated inhibitor (“cold” perfect competitive inhibitor positive control for inhibition):
# Each hit compound was tested using the TR-FRET assay above in quadruplicate in a dilution series (50 μM to 0.64 nM). Curve fitting was performed using the open source software R version 2.15.2 with the ggplot2 package.
# DU-145 cells [3] = experiment: Clonogenic survival assay; details: 10 days; for Clonogenic survival, drug alone: decitabine 50 nM, mitoxantrone 2.5 nM, doxorubicin 5 nM; for Clonogenic survival, in combination with decitabine: mitoxantrone 2.5 nM or doxorubicin 5 nM with 50 nM decitabine
# DU-145 cells [4] = experiment: Growth curve assay (IncuCyte); format: cell-based; details: mitoxantrone 1.25 nM or doxorubicin 5 nM or 10 nM with 50 nM decitabine
# Protocol: The next day, cells were treated with a single dose of DMSO (vehicle control), decitabine alone (50 nM), mitoxantrone alone (1.25 nM), doxorubicin alone (5 nM or 10 nM), or decitabine in combination with mitoxantrone (1.25 nM) or doxorubicin (5 nM or 10 nM). Cell growth was measured using IncuCyte™ technology (Essen Bioscience, Ann Arbor, MI, USA) by imaging 16 fields per well at 6 hour intervals. The cell surface area and percent confluence were calculated using IncuCyte software, and growth curves were constructed in R using the ggplot2 package.
# [5] = tested on: C42B prostate cancer cell line; experiment: Cellular growth/proliferation assay; format: cell-based; details: mitoxantrone 2.5 nM or doxorubicin 5 nM with decitabine 50 nM
# Protocol: (§1) www.oncotarget.com Oncotarget, Supplementary Materials […]
# (§2) derivative chemotherapeutic drugs
# (§3) Supplementary Figure 1: Cellular growth/proliferation assays of C42B, PC-3 and LNCaP prostate cancer cell lines treated with mitoxantrone (2.5 nM) or doxorubicin (5 nM) in combination with decitabine (50 nM) or vehicle control (DMSO), decitabine alone, or DMSO alone.
# (§4) (1 picture or pasted object on this page, not shown here)
# [6] = tested on: LNCaP prostate cancer cell line; experiment: Cellular growth/proliferation assay; format: cell-based; details: mitoxantrone 2.5 nM or doxorubicin 5 nM with decitabine 50 nM
# Protocol: as §1, §2, §3, §4
# [7] = tested on: PC-3 prostate cancer cell line; experiment: Cellular growth/proliferation assay; format: cell-based; details: mitoxantrone 2.5 nM or doxorubicin 5 nM with decitabine 50 nM
# Protocol: as §1, §2, §3, §4
# [8] = 125 nM UHRF1_SRA, 100 nM FAM-labeled hemimethylated oligo, read-out: IC50 of inhibition of UHRF1_SRA binding to labeled hemimethylated DNA
SMILES,Inhibition of UHRF1_SRA binding to hemimethylated DNA in pilot screen [1],Dose-response validation of screen hits (result in words) [2],"IC50 [2, 8] [nM]",further results
NC(Cc1cc(O)c(O)cc1O)C(=O)O (racemic) [6-OH-DL-DOPA],significantly inhibited,failed to show any appreciable inhibition,,
CN(N=O)c1cc(O)ccc1O [dephostatin],significantly inhibited,failed to show any appreciable inhibition,,
COc1cccc2c1C(=O)c1c(O)c3c(c(O)c1C2=O)C[C@@](O)(C(=O)CO)C[C@@H]3O[C@H]1C[C@H](N)[C@H](O)[C@H](C)O1 [doxorubicin],,,,"Clonogenic survival, drug alone (DU-145 cells [3]): some reduction in clonogenic survival; Clonogenic survival, in combination with decitabine (DU-145 cells [3]): significantly enhanced reduction in clonogenic survival; Growth curve analysis, in combination with decitabine (DU-145 cells [4]): synergy; Growth/proliferation, combination with decitabine [5]: showed enhanced; Growth/proliferation, combination with decitabine [6]: did not show enhanced growth inhibition; Growth/proliferation, combination with decitabine [7]: showed enhanced; IC50 [2]: 131 nM"
Nc1c(S(=O)(=O)O)cc(Nc2ccc(Nc3nc(Cl)nc(Nc4cccc(S(=O)(=O)O)c4)n3)c(S(=O)(=O)O)c2)c2c1C(=O)c1ccccc1C2=O [Reactive Blue 2],significantly inhibited,,,
N#CC(C#N)=C(N)/C(C#N)=C/c1cc(O)c(O)c(O)c1 [tyrphostin 51],significantly inhibited,failed to show any appreciable inhibition,,
O=C(Nc1cccc(C(=O)Nc2ccc(S(=O)(=O)O)c3cc(S(=O)(=O)O)cc(S(=O)(=O)O)c23)c1)Nc1cccc(C(=O)Nc2ccc(S(=O)(=O)O)c3cc(S(=O)(=O)O)cc(S(=O)(=O)O)c23)c1 [NF023],significantly inhibited,inhibited binding with a sigmoidal dose response,840,
"N=C1Sc2ccccc2C2=NCCCN12 [PD404,182]",significantly inhibited,failed to show any appreciable inhibition,,
S=C=Nc1ccc2oc(C3=NCCN3)cc2c1 [BU99006],significantly inhibited,failed to show any appreciable inhibition,,
Cc1ccc(C(=O)Nc2ccc(S(=O)(=O)O)c3cc(S(=O)(=O)O)cc(S(=O)(=O)O)c23)cc1NC(=O)c1cccc(NC(=O)Nc2cccc(C(=O)Nc3cc(C(=O)Nc4ccc(S(=O)(=O)O)c5cc(S(=O)(=O)O)cc(S(=O)(=O)O)c45)ccc3C)c2)c1 [Suramin],significantly inhibited,inhibited binding with a sigmoidal dose response,2250,
"COc1cccc2c1C(=O)c1c(O)c3c(c(O)c1C2=O)C[C@@](O)(C(C)=O)C[C@@H]3O[C@H]1C[C@H](N)[C@H](O)[C@H](C)O1 [Daunorubicin, daunorubicin]",,,313,
O=C1c2c(O)ccc(O)c2C(=O)c2c(NCCNCCO)ccc(NCCNCCO)c21 [mitoxantrone],significantly inhibited,inhibited binding with a sigmoidal dose response,134,"Clonogenic survival, drug alone (DU-145 cells [3]): some reduction in clonogenic survival; Clonogenic survival, in combination with decitabine (DU-145 cells [3]): significantly enhanced reduction in clonogenic survival; Growth curve analysis, in combination with decitabine (DU-145 cells [4]): synergy; Growth/proliferation, combination with decitabine [5]: enhanced inhibition of; Growth/proliferation, combination with decitabine [6]: enhanced inhibition of; Growth/proliferation, combination with decitabine [7]: enhanced inhibition of"
Nc1ncn([C@H]2C[C@H](O)[C@@H](CO)O2)c(=O)n1 [decitabine],,,,"Clonogenic survival, drug alone (DU-145 cells [3]): some reduction in clonogenic survival"
"NCCNc1ccc(NCCN)c2c1C(=O)c1ccncc1C2=O [Pixantrone, pixantrone]",,,557,
"CN(N=O)c1ccc(O)c(O)c1 [methyl-3,4-dephostatin]",significantly inhibited,failed to show any appreciable inhibition,,
Cc1nc(N=Nc2cc(S(=O)(=O)O)c3cc([N+](=O)[O-])cc(S(=O)(=O)O)c3c2)c(COP(=O)(O)O)c(C=O)c1O [PPNDS],significantly inhibited,inhibited binding with a sigmoidal dose response,770,
CC(=O)[C@]1(O)Cc2c(O)c3c(c(O)c2[C@@H](O[C@H]2C[C@H](N)[C@H](O)[C@H](C)O2)C1)C(=O)c1ccccc1C3=O [idarubicin],significantly inhibited,inhibited binding with a sigmoidal dose response,593,
O=C(O)C1=CC(=C(c2ccc(O)c(C(=O)O)c2)c2ccc(O)c(C(=O)O)c2)C=CC1=O [aurintricarboxylic acid],significantly inhibited,inhibited binding with a sigmoidal dose response,21,
O=C(Nc1cc(C(=O)Nc2ccc(S(=O)(=O)O)cc2S(=O)(=O)O)cc(C(=O)Nc2ccc(S(=O)(=O)O)cc2S(=O)(=O)O)c1)Nc1cc(C(=O)Nc2ccc(S(=O)(=O)O)cc2S(=O)(=O)O)cc(C(=O)Nc2ccc(S(=O)(=O)O)cc2S(=O)(=O)O)c1 [NF449],significantly inhibited,inhibited binding with a sigmoidal dose response,393,
